{"source": "patent US20090257999A1", "about": "“Method of preventing contrast-induced nephropathy” (Inotek Pharmaceuticals Corporation, priority 2007, published 2009)", "key": {"diabetic rats [1]": {"test_system": "diabetic rats", "experiment": "CIN model, Example 5: INO-1001 alone and with NAC in diabetic rats", "type": "in vivo, rat", "conditions": "diabetic rats + Iomeprol, NAC 30 mg/kg i.v., INO-1001 10 mg/kg ip, or both, at −30 min", "protocol": "(§1) Male Wistar rats (150-200 g; Harlan Nossanr) were housed in a controlled environment and provided with standard rodent chow and water. Diabetes was induced after 12 h of fasting. The animals received a single 60 mg/kg intravenous (i.v.) injection of streptozotocin (Sigma, St. Louis, Mo.) in 10 mM sodium citrate buffer, pH 4.5 (see figure). Control non-diabetic animals were fasted and received citrate buffer alone. After 24 hours, animals with blood glucose levels greater than 250 mg/dl were considered diabetic. The diabetic state was confirmed by evaluating the blood glucose levels. Ten days following the induction of diabetes rats were anesthetized with 90 mg/kg ketamine i.m. and 10 mg/kg xylazine i.m. and were treated with the contrast agent iomeprol (10 mL/kg injected via the lateral tail vein) or with 0.9% normal saline. The contrast agent used was the low osmolar non-ionic monomer iomeprol (Iomeron, 400 mgI mL-1; Bracco SpA, Milan, Italy) with an osmolality of 726±34 mosmol/kg H2O.\nGROUP 1: Diabetic rats only+Placebo (i.v.). GROUP 2: Diabetic rats+Iomeprol+Placebo (i.v.) given at −30 min. GROUP 3: Diabetic rats+Iomeprol+NAC (30 mg/kg, i.v.) given at −30 min. GROUP 4: Diabetic rats+Iomeprol+INO-1001 (10 mg/kg, ip) given at −30 min. GROUP 5: Diabetic rats+Iomeprol+NAC (30 mg/kg, i.v.)+INO-1001 (10 mg/kg, ip) given at −30 min.\n(§2) Blood samples were collected via the lateral tail vein into S1/3 tubes containing serum gel at 24 hours. The samples were centrifuged (6000 r.p.m. for 3 min) to separate plasma. All plasma samples were analyzed for biochemical parameters within 24 hours after collection. Plasma and urine concentrations of creatinine were measured as indicators of impaired glomerular function. Creatinine clearance was calculated using the following formula (=UV/P), where U refers to Creatinine concentration in urine, V to urine volume/min and P to serum creatinine. Plasma and urine concentrations of NGAL (neutrophil gelatinase associated lipocalin) levels and urine αGST (alpha glutathione S-transferase) and NGAL levels were evaluated.\nProtein concentration in urine was determined by Bio-Rad DC Protein Assay (BioRad, Richmond Calif.). The Bio-Rad DC protein assay is a colorimetric assay for protein concentration. The reaction is similar to the well-documented Lowry assay (Lowry et al., Protein measurement with the Folin phenol reagent, J Biol Chem 193, 265-275 (1951). The Bio-Rad DC protein assay requires only a single 15-minute incubation, and absorbance is stable for a least 2 hours. The amount of protein is expressed in mg/ml."}, "diabetic rats [2]": {"test_system": "diabetic rats", "experiment": "CIN model, Example 3: M40403 alone and with NAC in diabetic rats", "type": "in vivo, rat", "conditions": "diabetic rats + Iomeprol, 24 hours; M40403 0.5 mg/kg i.v. alone or + NAC 3 mg/kg i.v., at −30 min", "protocol": "as §1, with “12 hours” for “12 h”\nas §2, with “gel at 0 and 24 hours.” for “gel at 24 hours.”, “of NGAL levels were” for “of NGAL (neutrophil gelatinase associated lipocalin) levels and urine αGST (alpha glutathione S-transferase) and NGAL levels were”"}, "[3]": {"conditions": "Iomeron, 400 mgI mL-1; cited from earlier work"}}, "data": [{"smiles": "O=c1[nH]cnc2c1ncn2[C@@H]1O[C@H](CO)[C@@H](O)[C@H]1O", "note": "[INO-1001]", "values": [{"measurement": "plasma creatinine", "setting": "diabetic rats [1]; 24 h", "value": "significant reductions"}, {"measurement": "plasma NGAL concentration", "setting": "diabetic rats [1]; 24 hours", "value": "significant reductions"}, {"measurement": "total protein concentration in the urine", "setting": "diabetic rats [1]; 24 hours", "value": "significant reductions"}, {"measurement": "urine NGAL concentration", "setting": "diabetic rats [1]; 24 hours", "value": "significant reductions"}, {"measurement": "urine αGST", "setting": "diabetic rats [1]; 24 hours", "value": "significant reductions"}]}, {"smiles": "[Cl-].[Cl-].[Mn+2].c1cc2nc(c1)CN[C@@H]1CCCC[C@H]1NCCN[C@@H]1CCCC[C@H]1NC2", "note": "[Metalloporphyrin M40403]", "values": [{"measurement": "plasma NGAL concentration", "setting": "diabetic rats [2]", "value": "significant reduction"}, {"measurement": "plasma Na+", "setting": "diabetic rats [2]", "value": "significant reductions"}, {"measurement": "plasma concentrations of K+", "setting": "diabetic rats [2]", "value": "significant increase"}, {"measurement": "plasma creatinine", "setting": "diabetic rats [2]", "value": "significant reductions"}, {"measurement": "total protein concentrations in the urine", "setting": "diabetic rats [2]", "value": "significantly reduced"}, {"measurement": "urine NGAL concentration", "setting": "diabetic rats [2]", "value": "significant reduction"}]}, {"smiles": "CN(C(=O)CO)c1c(I)c(C(=O)NCC(O)CO)c(I)c(C(=O)NCC(O)CO)c1I", "note": "(stereo not drawn) [iomeprol]", "values": [{"measurement": "osmolality", "setting": "[3]", "value": "726±34", "unit": "mosmol/kg H2O"}]}]}
